Assay [1] concerns the target T1, Sentrin-specific protease 8 (Homo sapiens, UniProt Q96LD8).
T1 sequence (Q96LD8 whole entry): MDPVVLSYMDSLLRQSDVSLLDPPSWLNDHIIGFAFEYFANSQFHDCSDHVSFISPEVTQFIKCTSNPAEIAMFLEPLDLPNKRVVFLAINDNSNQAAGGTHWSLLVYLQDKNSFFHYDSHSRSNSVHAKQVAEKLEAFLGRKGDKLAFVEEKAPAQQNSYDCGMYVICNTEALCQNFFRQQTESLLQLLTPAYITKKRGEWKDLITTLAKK
Nature of the assay: SENP8 protease inhibitors, SAR follow-up, biochemical, luminescence (AID 504501). In kind it is functional.

The target of the next assay is T2, Caspase-3 (Homo sapiens, UniProt P42574).
T2 sequence (P42574 whole entry): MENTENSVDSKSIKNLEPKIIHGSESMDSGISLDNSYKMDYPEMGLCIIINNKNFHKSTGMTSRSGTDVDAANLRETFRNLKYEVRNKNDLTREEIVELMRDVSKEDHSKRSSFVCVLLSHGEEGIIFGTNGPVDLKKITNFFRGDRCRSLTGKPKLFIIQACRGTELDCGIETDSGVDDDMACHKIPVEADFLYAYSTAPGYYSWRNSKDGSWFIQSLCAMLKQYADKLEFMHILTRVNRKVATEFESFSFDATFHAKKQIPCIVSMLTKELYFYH
Nature of the assay: SAR Analysis of small molecule inhibitors of Sentrin-specific proteases (SENPs) using a Caspase-3 Selectivity assay. [Related pubchem assays (depositor defined):AID2540, AID2599, AID434973, AID489001]. In kind it is functional.

Assay [2] concerns the target T3, Sentrin-specific protease 6 (Homo sapiens, UniProt Q9GZR1).
T3 sequence (Q9GZR1 whole entry): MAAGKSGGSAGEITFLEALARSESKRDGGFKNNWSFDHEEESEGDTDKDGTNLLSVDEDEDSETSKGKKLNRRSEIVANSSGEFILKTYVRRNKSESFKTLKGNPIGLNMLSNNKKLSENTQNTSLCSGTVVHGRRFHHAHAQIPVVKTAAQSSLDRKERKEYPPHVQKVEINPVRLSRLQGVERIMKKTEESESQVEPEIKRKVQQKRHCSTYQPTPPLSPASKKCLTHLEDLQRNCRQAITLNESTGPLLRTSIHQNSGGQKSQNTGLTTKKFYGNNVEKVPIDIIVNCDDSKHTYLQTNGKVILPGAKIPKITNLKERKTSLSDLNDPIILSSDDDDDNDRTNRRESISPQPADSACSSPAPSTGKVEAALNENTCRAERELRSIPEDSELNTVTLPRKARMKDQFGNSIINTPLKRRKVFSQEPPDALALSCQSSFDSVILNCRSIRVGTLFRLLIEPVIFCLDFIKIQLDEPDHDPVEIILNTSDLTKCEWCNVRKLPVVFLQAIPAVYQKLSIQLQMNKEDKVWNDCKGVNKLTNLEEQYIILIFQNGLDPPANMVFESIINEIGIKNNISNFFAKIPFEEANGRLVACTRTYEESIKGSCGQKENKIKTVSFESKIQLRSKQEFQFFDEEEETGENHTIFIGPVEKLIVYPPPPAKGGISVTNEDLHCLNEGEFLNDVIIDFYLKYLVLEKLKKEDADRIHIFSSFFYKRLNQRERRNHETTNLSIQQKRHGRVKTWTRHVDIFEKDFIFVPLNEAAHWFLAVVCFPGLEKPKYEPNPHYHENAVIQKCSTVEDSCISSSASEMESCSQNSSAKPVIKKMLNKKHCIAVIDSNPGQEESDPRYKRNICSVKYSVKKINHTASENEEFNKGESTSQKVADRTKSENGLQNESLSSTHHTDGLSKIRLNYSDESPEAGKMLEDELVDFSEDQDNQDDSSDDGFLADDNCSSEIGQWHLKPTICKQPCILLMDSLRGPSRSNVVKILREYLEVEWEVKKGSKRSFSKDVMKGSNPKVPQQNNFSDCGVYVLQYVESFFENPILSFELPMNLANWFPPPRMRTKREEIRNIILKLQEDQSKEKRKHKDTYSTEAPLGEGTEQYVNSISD
Nature of the assay: SAR Analysis of small molecule inhibitors of Sentrin-specific protease 6 (SENP6) using a Luminescent assay. [Related pubchem assays (depositor defined):AID2582, AID2599]. The format is functional.

Assay [3] deals with T4, Sentrin-specific protease 7 (Homo sapiens, UniProt Q9BQF6).
T4 sequence (Q9BQF6 whole entry): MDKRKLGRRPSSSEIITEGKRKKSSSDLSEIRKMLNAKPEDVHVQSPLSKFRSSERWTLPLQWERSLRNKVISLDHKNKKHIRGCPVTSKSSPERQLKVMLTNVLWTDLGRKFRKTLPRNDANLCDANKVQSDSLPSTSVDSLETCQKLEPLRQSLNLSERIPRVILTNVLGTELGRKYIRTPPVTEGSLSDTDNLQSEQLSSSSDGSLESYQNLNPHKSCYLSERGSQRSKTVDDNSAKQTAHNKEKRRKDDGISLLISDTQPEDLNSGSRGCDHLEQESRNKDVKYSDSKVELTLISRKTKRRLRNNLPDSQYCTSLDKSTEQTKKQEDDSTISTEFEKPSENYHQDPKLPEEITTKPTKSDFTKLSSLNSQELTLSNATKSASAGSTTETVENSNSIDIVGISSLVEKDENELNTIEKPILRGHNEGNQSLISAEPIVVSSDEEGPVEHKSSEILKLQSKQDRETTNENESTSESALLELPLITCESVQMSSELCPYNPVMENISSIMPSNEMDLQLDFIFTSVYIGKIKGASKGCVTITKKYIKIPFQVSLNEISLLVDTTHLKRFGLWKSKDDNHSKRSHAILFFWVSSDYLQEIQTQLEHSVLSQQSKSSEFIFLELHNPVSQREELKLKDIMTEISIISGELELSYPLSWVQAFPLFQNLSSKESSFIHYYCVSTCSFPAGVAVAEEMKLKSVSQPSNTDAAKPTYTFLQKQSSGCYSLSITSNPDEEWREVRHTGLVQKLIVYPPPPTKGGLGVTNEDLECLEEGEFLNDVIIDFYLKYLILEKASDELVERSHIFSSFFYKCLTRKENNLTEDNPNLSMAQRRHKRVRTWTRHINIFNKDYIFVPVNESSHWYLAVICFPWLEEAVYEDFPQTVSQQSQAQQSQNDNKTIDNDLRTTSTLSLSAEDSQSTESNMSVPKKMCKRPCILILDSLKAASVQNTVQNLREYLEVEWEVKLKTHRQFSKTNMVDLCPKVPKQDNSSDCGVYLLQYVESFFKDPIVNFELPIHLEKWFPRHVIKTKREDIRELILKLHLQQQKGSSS
Nature of the assay: SENP7 protease inhibitors, SAR follow-up, biochemical, luminescence (AID 504497). The format is functional.

The subject of the next assay is P388/ADR. As to the kind of experiment: cells. The format is functional. The settings on record: Mus musculus.
For the next assay, the system named is SN12K1. As to the kind of experiment: cells. In kind it is functional. The settings on record: Homo sapiens.
A further assay relates to P388. As to the kind of experiment: cells. The settings on record: Mus musculus. The format is functional.
Assay [4] concerns the target T5, High affinity choline transporter 1 (Homo sapiens, UniProt Q9GZV3).
T5 sequence (Q9GZV3 whole entry): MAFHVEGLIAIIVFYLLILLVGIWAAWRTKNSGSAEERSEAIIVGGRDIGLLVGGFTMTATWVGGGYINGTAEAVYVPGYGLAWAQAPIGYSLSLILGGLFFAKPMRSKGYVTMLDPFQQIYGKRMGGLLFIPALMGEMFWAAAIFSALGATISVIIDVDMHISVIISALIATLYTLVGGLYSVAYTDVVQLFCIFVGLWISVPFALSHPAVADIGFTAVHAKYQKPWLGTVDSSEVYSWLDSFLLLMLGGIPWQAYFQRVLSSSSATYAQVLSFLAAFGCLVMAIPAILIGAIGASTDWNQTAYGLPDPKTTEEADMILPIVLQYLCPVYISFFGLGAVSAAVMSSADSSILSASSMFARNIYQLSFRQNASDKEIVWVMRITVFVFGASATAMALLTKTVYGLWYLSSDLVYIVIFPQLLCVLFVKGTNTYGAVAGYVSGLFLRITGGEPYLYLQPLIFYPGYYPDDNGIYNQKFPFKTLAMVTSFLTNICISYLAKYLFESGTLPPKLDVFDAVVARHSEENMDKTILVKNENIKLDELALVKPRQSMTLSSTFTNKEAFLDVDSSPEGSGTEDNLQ
Nature of the assay: CHT inhibitors, dose response, cell-based, 5-point CRC, membrane potential dye (AID 504840). The format is functional.

The target of assay [5] is T5, High affinity choline transporter 1. Nature of the assay: CHT inhibitors, dose response, cell-based, 10-point CRC, membrane potential dye (AID 588401).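 Also: membrane potential dye fluorescence of choline-evoked depolarization via CHT.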 In kind it is functional.
In assay [6] the test system is BJ. As to the kind of experiment: cytotoxicity toward BJ-TERT fibroblasts, dose response, cell-based, RAS-independent, luminescence (AID 1933). The format is functional. The settings on record: Homo sapiens.
The test system of assay [7] is BJ. As to the kind of experiment: cells. In kind it is functional, cell-based. The settings on record: Homo sapiens.
The target of assay [8] is Luciferin 4-monooxygenase (Photinus pyralis, UniProt P08659). Nature of the assay: firefly luciferase enzyme inhibitors, dose response, biochemical, luminescence (AID 1891).
Luciferin 4-monooxygenase, sequence (P08659 whole entry): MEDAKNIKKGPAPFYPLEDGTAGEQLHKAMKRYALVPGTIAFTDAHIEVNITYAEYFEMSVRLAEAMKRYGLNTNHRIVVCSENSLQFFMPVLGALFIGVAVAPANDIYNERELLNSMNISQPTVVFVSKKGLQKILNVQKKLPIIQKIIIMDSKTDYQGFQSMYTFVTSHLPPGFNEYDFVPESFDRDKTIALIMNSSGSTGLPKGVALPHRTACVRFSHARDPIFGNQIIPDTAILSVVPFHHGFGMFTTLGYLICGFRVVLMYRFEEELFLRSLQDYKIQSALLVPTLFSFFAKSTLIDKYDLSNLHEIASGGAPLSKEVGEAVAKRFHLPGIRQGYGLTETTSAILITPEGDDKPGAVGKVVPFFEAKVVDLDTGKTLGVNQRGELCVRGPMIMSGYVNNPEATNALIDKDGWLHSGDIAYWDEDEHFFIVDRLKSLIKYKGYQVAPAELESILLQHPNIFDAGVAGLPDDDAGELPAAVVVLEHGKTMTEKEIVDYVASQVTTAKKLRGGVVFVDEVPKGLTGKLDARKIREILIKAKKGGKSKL
Assay [9] can be described thus: Luminescence Cell-Based Dose Confirmation HTS to Identify Inhibitors of Platelet Dense Granule Release. [Related pubchem assays: 1663 (Primary HTS), 1678 (Summary of Project)]. In kind it is functional.
Assay [10] has as its system BJ. As to the kind of experiment: cytotoxicity toward BJ-TERT-LT-ST fibroblasts, dose response, cell-based, RAS-independent, luminescence (AID 1935).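 Also: BJ fibroblasts immortalized with TERT plus LT and ST oncogenes.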 The format is functional. The note with it: Homo sapiens.
Assay [11] can be described thus: cytotoxicity toward DRD oncogenic fibroblasts, dose response, cell-based, non-viral oncogenic, luminescence (AID 1934). In kind it is functional. The note with it: Homo sapiens.
In assay [12] the target is Heat shock protein HSP 90-alpha (Homo sapiens, UniProt P07900). In kind it is functional, organism-based.
In the next assay the target is HSP90 (Plasmodium falciparum 3D7, UniProt Q8IL32). The format is functional, organism-based.
HSP90, sequence (Q8IL32 whole entry): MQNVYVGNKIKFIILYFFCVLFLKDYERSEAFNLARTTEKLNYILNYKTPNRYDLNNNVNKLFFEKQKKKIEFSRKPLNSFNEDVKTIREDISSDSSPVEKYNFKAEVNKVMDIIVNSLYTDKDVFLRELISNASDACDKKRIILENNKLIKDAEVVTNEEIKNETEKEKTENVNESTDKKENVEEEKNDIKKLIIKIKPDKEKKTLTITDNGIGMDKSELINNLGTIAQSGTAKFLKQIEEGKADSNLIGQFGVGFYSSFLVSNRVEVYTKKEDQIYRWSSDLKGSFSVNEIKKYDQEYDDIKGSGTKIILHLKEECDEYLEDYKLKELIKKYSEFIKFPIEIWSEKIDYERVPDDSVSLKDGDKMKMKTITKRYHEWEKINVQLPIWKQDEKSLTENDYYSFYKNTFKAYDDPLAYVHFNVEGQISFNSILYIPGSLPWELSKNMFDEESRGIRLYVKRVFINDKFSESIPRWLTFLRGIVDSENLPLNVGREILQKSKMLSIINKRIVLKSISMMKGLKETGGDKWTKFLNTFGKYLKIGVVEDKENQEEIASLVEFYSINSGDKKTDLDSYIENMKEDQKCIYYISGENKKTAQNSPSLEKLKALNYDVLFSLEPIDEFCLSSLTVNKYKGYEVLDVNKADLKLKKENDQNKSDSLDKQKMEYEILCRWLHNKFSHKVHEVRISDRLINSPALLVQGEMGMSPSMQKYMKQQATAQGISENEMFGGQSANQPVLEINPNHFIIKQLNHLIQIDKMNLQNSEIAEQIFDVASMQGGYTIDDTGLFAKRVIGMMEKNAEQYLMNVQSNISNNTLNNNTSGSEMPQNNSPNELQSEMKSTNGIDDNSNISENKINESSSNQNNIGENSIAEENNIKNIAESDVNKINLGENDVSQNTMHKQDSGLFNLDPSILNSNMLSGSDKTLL

Active and inactive are the calls of the source.

The values below come from ChEMBL document CHEMBL1201862, “PubChem BioAssay data set” (2004).

In general, IC50 refers to the midpoint of a concentration-inhibition curve. Usually GI50 stands for the concentration that inhibits growth by half. What is called EC50 is the midpoint of the concentration-response curve. In general, AC50 refers to the concentration at which the activity in the assay is half-maximal.

For the molecule `O=C(Nc1nc2ccc(Cl)cc2s1)C1CCCCC1`, the IC50 (in assay [1]; on Caspase-3; in [2]; in [3]) was > 99 µM (inactive) each time.

As to `Nc1ncnc2c1ncn2C1CCC(CO)O1` (stereo unspecified), the results for the GI50 in the assay with P388/ADR, in the assay with SN12K1 and in the assay on P388 were 69.5 µM (inactive), > 62.4 µM (inactive) and 98.6 µM (inactive), respectively.

Consider `COc1cc(OC)cc(-c2noc(/C=C/c3ccccc3Cl)n2)c1`, for which the IC50 (in assay [1]; on Caspase-3; in [2]; in assay [3]) was > 99 µM (inactive) each time.

Consider `O=[N+]([O-])/C(C(=C(Cl)Cl)N1CCN(Cc2ccccc2)CC1)=C1\NCCN1Cc1ccc(Cl)nc1`, for which the IC50 was 6.15 µM (active) in [4] and 5.39 µM (active) in assay [5].

For the molecule `C(=C\c1nc2ccccc2[nH]1)/c1ccccc1`, the concentration giving a half-maximal response (EC50) with BJ [6] is 6.89 µM (active); in the assay with BJ [7], 8.19 µM (active); in assay [8] it was 0.949 µM (active); in assay [9] it was 2.44 µM (active); in the assay with BJ [10] it was > 150 µM (inconclusive); in assay [11], 6.84 µM (active). Also, the AC50 in [12] is 44 µM (active); on HSP90, 106 µM (active).
